“And” between values parts separate entries of the source, which are not always exact repeats. Equal entries are not always repeated.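 Growth conditions: 96-well plates. Treatment: test compound, 48 hours, 5 concentrations. Analysis: linear interpolation between bracketing concentrations; unreached endpoints set to highest concentration. The concentration for 50% growth inhibition is given as GI50. At the TGI there is no net growth.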 Where a SMILES comes first, the peptide text is derived from it. [ ]: non-standard residue; d: D form. NMeY = CN[C@@H](Cc1ccc(O)cc1)C(=O)O; dNMeF = CN[C@H](Cc1ccccc1)C(=O)O; Sar = CNCC(=O)O
Assays:
Experiment in all cases: NCI tumour cell line growth inhibition, 48 h
786-0 renal = system: 786-0 renal
A498 renal = system: A498 renal
CCRF-CEM leukemia = system: CCRF-CEM leukemia
HCT-15 colon = system: HCT-15 colon
NCI-H23 lung = system: NCI-H23 lung
NCI-H522 lung = system: NCI-H522 lung
OVCAR-5 ovarian = system: OVCAR-5 ovarian
RPMI-8226 leukemia = system: RPMI-8226 leukemia
SF-539 CNS = system: SF-539 CNS
SN12C renal = system: SN12C renal

SMILES	GI50 (786-0 renal) [µM]	TGI (786-0 renal) [µM]	GI50 (A498 renal) [µM]	TGI (A498 renal)	GI50 (CCRF-CEM leukemia)	TGI (CCRF-CEM leukemia) [µM]	GI50 (HCT-15 colon)	TGI (HCT-15 colon) [µM]	GI50 (NCI-H23 lung) [µM]	TGI (NCI-H23 lung)	GI50 (NCI-H522 lung) [µM]	TGI (NCI-H522 lung)	GI50 (OVCAR-5 ovarian) [µM]	TGI (OVCAR-5 ovarian)	GI50 (RPMI-8226 leukemia) [µM]	TGI (RPMI-8226 leukemia) [µM]	GI50 (SF-539 CNS) [µM]	TGI (SF-539 CNS)	GI50 (SN12C renal) [µM]	TGI (SN12C renal)
CO/N=C(/COc1c(-c2ccccc2)oc2ccccc2c1=O)c1ccc(OC)cc1	> 100	> 100	32.9	> 100 µM	60 µM	> 100	> 100 µM	> 100	> 100	> 100 µM	53.3	> 100 µM	> 100	> 100 µM	41.9	> 100	> 100	> 100 µM	76.7	> 100 µM
CN(C)CC/C(=N\Nc1ccc(Cl)c(Cl)c1)c1ccccc1	–	3.37	–	9.13 µM	–	6.18	–	4.18	–	3.67 µM	–	4.28 µM	–	6.34 µM	–	6.73	–	3.47 µM	–	5.26 µM
Cc1ccccc1-c1c(N)nc(N)nc1C(=O)Nc1nccs1	–	> 100	–	> 100 µM	–	> 100	–	> 100	–	> 100 µM	–	> 100 µM	–	> 100 µM	–	> 100	–	> 100 µM	–	> 100 µM
COc1ccc(-c2cc(-c3cn[nH]c3-c3ccccn3)ccn2)cc1	> 25	> 25	> 25	> 25 µM	> 25 µM	> 25	> 25 µM	> 25	> 25	> 25 µM	> 25	> 25 µM	> 25	> 25 µM	> 25	> 25	> 25	> 25 µM	> 25	> 25 µM
CC(=O)Nc1ccccc1-c1cnc2ccccc2n1	–	> 100	–	> 100 µM	–	> 100	–	> 100	–	> 100 µM	–	> 100 µM	–	> 100 µM	–	> 100	–	> 100 µM	–	> 100 µM
Nc1ncnc2c(C3OC(CO)C(O)C3O)[nH]nc12 (configuration not stated)	0.0544	5.65	0.203	3.98 µM and 4.78 µM	4.68 µM and 2.77 µM	73.9	0.0383 µM and 0.0444 µM	0.156	0.659	10.5 µM and 16.4 µM	0.239	3.74 µM and 6.29 µM	0.0727	3.58 µM and 8.57 µM	–	3.96	0.271	2.32 µM and 5.87 µM	0.161	1.68 µM and 1.09 µM
Cc1cc2c3ccccc3ccc2[n+]2ccccc12	6.11	> 69.1	5.43	> 100 µM	4.72 µM	35.2	37.9 µM	> 100	2.57	19.3 µM	2.6	13.1 µM	30.3	> 100 µM	8.7	80.3	3.47	17 µM	1.4	7.29 µM
N#Cc1cccc(/C=C(/C(=O)c2ccccc2)c2ccccc2)c1	6.73	23.8	4.08	17.2 µM	2.56 µM	12.8	3.4 µM	22.8	3.52	17.1 µM	2.35	6.95 µM	11.9	29.1 µM	2.82	9.27	5.55	18.4 µM	3.85	25.9 µM
Cc1cccc(NC(=O)CCl)c1	–	> 10	–	> 10 µM	–	8.83	–	> 10	–	> 10 µM	–	4.32 µM	–	> 10 µM	–	> 10	–	> 10 µM	–	> 10 µM
NC(=S)NNC(=O)CCC(=O)Nc1ccc(Cl)cc1Cl	–	> 100	–	> 100 µM	–	> 100	–	> 100	–	> 100 µM	–	> 100 µM	–	> 100 µM	–	> 100	–	> 100 µM	–	> 100 µM
O=C1[C@@H]2C3SC(c4ccccc43)[C@@H]2C(=O)N1c1ccccc1	–	> 100	–	> 100 µM	–	> 100	–	> 100	–	> 100 µM	–	> 100 µM	–	> 100 µM	–	> 100	–	> 100 µM	–	> 100 µM
CC(=O)C1C(=O)C(=O)N(c2ccccc2N2C(=O)C(=O)C(C(C)=O)C2=O)C1=O (configuration not stated)	–	> 100	–	> 100 µM	–	> 100	–	> 100	–	> 100 µM	–	> 100 µM	–	> 100 µM	–	> 100	–	> 100 µM	–	> 100 µM
CC(=O)OCC1OC(n2c(=O)n(-c3ccccc3)c(=O)c3cc(Br)cc(Br)c32)C(OC(C)=O)C(OC(C)=O)C1OC(C)=O (configuration not stated)	–	> 100	–	> 100 µM	–	> 100	–	> 100	–	> 100 µM	–	> 100 µM	–	> 100 µM	–	> 100	–	> 100 µM	–	> 100 µM
c1ccc(-c2nnc(Nc3ccc4c(c3)OCCO4)o2)c(NCc2ccncc2)c1	0.0756	> 100	0.0226	0.533 µM	0.033 µM	> 100	0.0369 µM	> 100	0.033	6.81 µM	< 0.01	0.86 µM	0.0904	79 µM	0.0445	7.63	0.0283	6.01 µM	0.0579	> 64.6 µM
CCCCCCCCCCCC[n+]1ccccc1	1.48	3.42	1.57	7.48 µM	1.34 µM	8.55	2.61 µM	16.4	0.488	5.67 µM	0.665	2.84 µM	1.57	7.67 µM	0.29	1.67	1.47	4.9 µM	1.63	4.11 µM
CN(C)CCNC(=O)Cn1ccc(=O)c2ccc([N+](=O)[O-])cc21	–	> 100	–	> 100 µM	–	> 100	–	> 100	–	> 100 µM	–	> 100 µM	–	> 100 µM	–	> 100	–	> 100 µM	–	> 100 µM

SMILES	GI50 (786-0 renal) [µM]	TGI (786-0 renal) [µM]	GI50 (A498 renal) [µM]	TGI (A498 renal)	GI50 (CCRF-CEM leukemia)	TGI (CCRF-CEM leukemia) [µM]	GI50 (HCT-15 colon)	TGI (HCT-15 colon) [µM]	GI50 (NCI-H23 lung) [µM]	TGI (NCI-H23 lung)	GI50 (NCI-H522 lung) [µM]	TGI (NCI-H522 lung)	GI50 (OVCAR-5 ovarian) [µM]	TGI (OVCAR-5 ovarian)	GI50 (RPMI-8226 leukemia) [µM]	TGI (RPMI-8226 leukemia) [µM]	GI50 (SF-539 CNS) [µM]	TGI (SF-539 CNS)	GI50 (SN12C renal) [µM]	TGI (SN12C renal)
COc1cc(C(=O)C/C(CCC(=O)Nc2ccc(Cl)cc2Cl)=N/NC(=O)C(N)=O)ccc1O	–	> 100	–	> 100 µM	–	> 100	–	> 100	–	> 100 µM	–	> 100 µM	–	> 100 µM	–	> 100	–	> 100 µM	–	> 100 µM
Nc1ccn(C2CC(O)C(CO)O2)c(=O)n1 (configuration not stated)	> 5000	> 5000	> 5000	> 5000 µM	> 5000 µM	> 5000	> 5000 µM	> 5000	> 5000	> 5000 µM	> 5000	> 5000 µM	> 5000	> 5000 µM	> 5000	> 5000	> 5000	> 5000 µM	> 5000	> 5000 µM
COc1cc2c(c(OC)c1OC)-c1ccc(SC)c(=O)cc1[C@@H](NCc1cccc(C#N)c1)CC2	< 0.0075	20.9	–	0.0732 µM	< 0.0075 µM	6.16	< 0.0075 µM	–	–	< 0.0075 µM	< 0.0075	0.0377 µM and < 0.0075 µM	> 75	> 75 µM	< 0.0075	40.7	< 0.0075	0.0354 µM and < 0.0075 µM	< 0.0075	66.1 µM
COc1cc2nc(N3CCCC3)nc(Nc3ccccc3)c2cc1OC	1.71	3.53	1.02	2.28 µM	0.329 µM	3.09	0.68 µM	2.04	1.93	3.76 µM	1.89	3.96 µM	1.75	3.14 µM	1.07	4.3	0.56	1.84 µM	1.72	3.24 µM
NCCCC1NC(=O)/C(=C(O)/C=C/C2CCC[C@@H]2CC2SCCS2)C1=O (some centres not stated)	–	> 100	–	> 100 µM	–	> 100	–	–	–	> 100 µM	–	98.4 µM	–	> 100 µM	–	> 100	–	> 100 µM	–	> 100 µM
Cc1ccc(C2(O)CC(c3ccc([N+](=O)[O-])o3)=NN2C(=O)COc2ccccc2Cl)cc1 (configuration not stated)	–	> 100	–	> 100 µM	–	> 100	–	24.1	–	33.6 µM	–	> 48.4 µM	–	> 91.8 µM	–	> 31.9	–	48.4 µM	–	> 49.1 µM
O=C(O)c1ccc(NCc2nc3cc4ccccc4cc3[nH]2)cc1	–	> 100	–	> 100 µM	–	> 100	–	> 100	–	> 100 µM	–	> 100 µM	–	> 100 µM	–	> 100	–	> 100 µM	–	> 100 µM
O=C(CC(=O)Nc1ccccc1O)Nc1ccccc1O	–	36	–	> 100 µM	–	> 100	–	21.8	–	64.3 µM	–	24.8 µM	–	> 100 µM	–	44.2	–	35.1 µM	–	33.8 µM
COc1ccc(/C=C/C(=O)c2ccc3cc(OC)c(OC)cc3c2)cc1OC	4.19	27.9	2.66	23.1 µM	3.03 µM	31.6	2.69 µM	40.8	6.9	32 µM	2.48	7.99 µM	4.81	> 100 µM	1.9	5.07	2.94	10.4 µM	3.41	31.2 µM
CC[C@H](C)[C@@H]1NC(=O)[C@H](Cc2ccc(O)cc2)N(C)C(=O)[C@H](Cc2ccccc2)NC(=O)CN(C)C(=O)[C@@H]2CCCN2C(=O)[C@@H](Cc2ccccc2)N(C)C(=O)[C@H](CC(C)C)NC1=O (cyclo(F[NMeY]IL[dNMeF]P[Sar]))	0.467	5.75	0.695	6.11 µM	0.279 µM	11.7	4.1 µM	19.8	0.197	5.95 µM	0.287	3.95 µM	0.299	8.09 µM	0.229	1.2	0.287	2.61 µM	0.139	5.79 µM
COc1ccc2nc(NC(=O)C(=O)C(C(=O)c3ccccc3-c3ccccc3)C3OC(=O)c4ccccc43)sc2c1 (configuration not stated)	–	31.7	–	40.8 µM	–	> 100	–	–	–	30.5 µM	–	23.8 µM	–	35.9 µM	–	51.9	–	28.9 µM	–	–
N#CCN1CCOCCOCCN(CC#N)CCOCCOCC1	–	> 100	–	> 100 µM	–	> 100	–	> 100	–	> 100 µM	–	–	–	> 100 µM	–	> 100	–	> 100 µM	–	> 100 µM
CCN(CC)CCCOc1cc(O)c2c(=O)cc(-c3ccccc3)oc2c1	11.3	24.1	10.2	22.4 µM	10.4 µM	26.8	3.94 µM	14.6	11.4	23.4 µM	12.1	26.7 µM	13	25.7 µM	9.71	28.4	6.65	19.5 µM	10.1	22.8 µM
Cc1ncc(C(=O)Nc2ccc(CN3CCN(C)CC3)c(C(F)(F)F)c2)cc1C#Cc1cnc(N)c2ncccc12	0.508	2.88	0.228	2.38 µM	0.558 µM	> 20.6	0.0752 µM	1.79	0.841	3.3 µM	1.05	3.96 µM	0.807	2.81 µM	0.538	3.98	1.12	2.59 µM	0.221	1.91 µM
O=C(O)CCCCCO	–	> 100	–	> 100 µM	–	> 100	–	> 100	–	> 100 µM	–	> 100 µM	–	> 100 µM	–	> 100	–	> 100 µM	–	> 100 µM
COC(=O)c1ccc2c(c1)C(=O)c1c-2n(CCCN)c(=O)c2cc([N+](=O)[O-])ccc12	< 0.025	0.302	0.116	1.44 µM	< 0.01 µM	0.0759	0.0625 µM	0.56	< 0.0318	1.28 µM	< 0.0306	0.588 µM	0.139	0.661 µM	< 0.01	0.117	< 0.0196	0.21 µM	< 0.0233	1.36 µM

Reference: PubChem BioAssay (NCI)
